Results from PMC10813298, “Evidence of Guanidines Potential against Leishmania (Viannia) braziliensis: Exploring In Vitro Effectiveness, Toxicities and of Innate Immunity Response Effects” (Biomolecules, 2023).
Where two headings read alike, the source gives them in different places.

What was measured:
[1] = system: L. (V.) braziliensis promastigotes; experiment: Antileishmanial activity on promastigotes (MTT, 72 h); assay type: cell-based, Leishmania (Viannia) braziliensis
Method: Leishmania (Viannia) braziliensis (MHOM/BR/1975/M2903) was utilized in this study. The promastigote forms of these parasites were maintained in vitro in Schneider’s insect medium pH 7.2, supplemented with 20% fetal bovine serum (FBS) and 1% antibiotic solution (100 U/mL penicillin and 100 μg/mL streptomycin) at a temperature of 26 ± 1 °C in a Biochemical Oxygen Demand (BOD) incubator (Eletrolab EL202, São Paulo, Brazil), with regular aeration and weekly subculturing.
Assessment of antileishmanial activity against promastigote and amastigote axenic forms of parasites followed the method described by Rodrigues et al. and involved the following steps: L. (V.) braziliensis parasites were cultured in 96-well plates at a concentration of 1 × 10^6 parasites per well. Each well contained 100 μL of supplemented Schneider medium. Serial concentrations of the test substances, ranging from 50 to 1.56 μmol/L, were prepared. Reference drugs, meglumine antimoniate (20 to 40,000 μmol/L) and amphotericin B (0.031 to 2 μmol/L) were also prepared. These concentrations were used to assess the effects of the test substances in comparison to reference drugs. The plates were incubated in a BOD incubator at 26 °C for 72 h. After the 72 h incubation period, 10 μL of MTT (5 mg/mL) was added to each well. The plates were then incubated for an additional 4 h. At the end of the 4 h incubation, formazan crystals formed by the reduction of the MTT salt were solubilized by adding 50 μL of a 10% (w/v) sodium dodecyl sulfate (SDS) solution in distilled water. Absorbance was measured using a microplate reader at a wavelength of 540 nm (Biosystems ELx800 model, Curitiba, PR, Brazil). This measurement quantified the metabolic activity of the parasites, which is indicative of their viability and proliferation. Schneider medium containing 0.2% DMSO was used as a negative control in the tests.
The different mean concentrations for promastigotes (IC50) and macrophages (CC50) were calculated using nonlinear regression. For comparisons between groups, ANOVA analysis of variance was performed followed by Tukey’s test in a statistical program, taking the p-value < 0.05 as the maximum level of statistical significance.

[2] = system: L. (V.) braziliensis intramacrophage amastigotes; experiment: Treatment of RAW 264.7 macrophages infected with L. (V.) braziliensis (intramacrophage amastigotes); assay type: cell-based, Leishmania (Viannia) braziliensis; settings: RAW 264.7 infected with L. (V.) braziliensis, 72 h of treatment
Method: RAW 264.7 macrophages (1 × 10^6 cells/mL) were seeded in 24-well plates containing sterile glass slides, and approximately 500 μL of supplemented DMEM medium was added. The plates were then incubated at 37 °C with 5% CO2 for 4 h to facilitate cell adhesion. Following the adhesion period, promastigotes (1 × 10^7) in the stationary growth phase were introduced into the wells for infection. The plates were then incubated for an additional 4 h to allow infection to take place. Afterward, the medium was carefully removed, and the wells were washed three times with PBS to eliminate any nonadherent cells. Fresh medium containing serial concentrations of the test substances, ranging from 0.78 to 25 μmol/L, was added to the wells. Additionally, a range of concentrations of glucantime (25 to 800 μmol/L) was included for comparison. The treatment was carried out for 72 h in an incubator at 37 °C with 5% CO2. At the end of the 72 h treatment period, the glass lamina was removed from each well and stained using rapid panoptic stain (Laborklin®, Curitiba, Paraná, Brazil). The stained samples were mounted on permanent slides using Entelan® (Sigma-Aldrich, St. Louis, MO, USA), and antileishmanial activity was assessed by measuring the infection rate and counting the number of amastigotes per macrophage. Quantification was performed using light microscopy at a magnification of 1000×, and a total of 300 macrophages per lamina were evaluated. As a negative control, half DMEM containing 0.2% DMSO was used.

[3] = system: reactive oxygen species (ROS); experiment: ROS production (H2DCFDA) in infected RAW 264.7 macrophages; assay type: cell-based, murine; settings: RAW 264.7 macrophages infected with L. (V.) braziliensis
Method: To quantify the levels of ROS generated by L. (V.) braziliensis-infected RAW 264.7 macrophages, the following procedure was employed: RAW 264.7 macrophages (1 × 10^5 cells per well) were added to a 96-well plate, with each well containing 100 μL of supplemented DMEM medium. These cells were allowed to incubate for 3 h at 37 °C with 5% CO2 to promote cell adhesion. Subsequently, the macrophages were infected with L. (V.) braziliensis at a ratio of 10:1 (promastigotes to macrophages) and incubated for 4 h. After the infection period, the cells were plated and incubated with various concentrations of test substances, ranging from 3.12 to 25 μmol/L. This incubation was carried out at 37 °C with 5% CO2 for duration of 72 h. Following the incubation period, 10 µL of H2DCFDA dye was added to each well, resulting in a final concentration of 20 µmol/L. The cells were then incubated at 37 °C in the dark for 30 min. The fluorescent intensity was measured using a fluorescence plate reader (FLx800) at an excitation wavelength of 485 nm and an emission wavelength of 528 nm. The fold change in ROS levels was calculated by comparing the results to a normal control.

[4] = system: L. (L.) infantum promastigotes; design: method as in PMID 36977142; settings: read-out: IC50 antipromastigote activity; cited from earlier work
[5] = Leishmania braziliensis, RAW264.7, 72 h

SMILES	EC50 [2, 5] [µM]	EC50 [2] [µM]	IC50 [1] [µM]	IC50 ([1]; Leishmania braziliensis) [µM]	ROS level [3]	IC50 [4] [µM]
O=C(/N=C(/NCc1ccccc1)Nc1ccc([N+](=O)[O-])cc1)c1ccccc1 [LQOF-G1, (Z)-N-benzoyl-N-benzyl-N-(4-nitrophenyl)guanidine]	3.65	3.6 ± 0.2	4.6 ± 0.5	4.62	increased	–
CC(C)(C)c1ccc(N/C(=N\C(=O)c2ccccc2)NCc2ccccc2)cc1 [LQOF-G6, (Z)-N-benzoyl-N-benzyl-N-(4-tert-butylphenyl)guanidine]	3.89	3.9 ± 0.1	–	5.9 ± 0.9	increased	24.4
O=C(/N=C(/NCc1ccc(Cl)cc1Cl)Nc1ccc(Br)cc1)c1ccccc1 [LQOF-G32, (Z)-N-benzoyl-N-(2,4-di-chlorobenzyl)-N-(4-bromophenyl)guanidine]	–	–	–	17.2 ± 1	–	–

Further lines, with some results ahead:

EC50 [2, 5] [µM]	EC50 [2] [µM]	SMILES	IC50 [1] [µM]	IC50 ([1]; Leishmania braziliensis) [µM]	ROS level [3]	IC50 [4] [µM]
4.21	4.2 ± 0.5	O=C(/N=C(/NCc1ccccc1)Nc1ccc(Br)cc1)c1ccccc1 [LQOF-G2, (Z)-N-benzoyl-N-benzyl-N-(4-bromophenyl)guanidine]	–	5.4 ± 0.8	increased	12.7
8.25	8.2 ± 0.7	O=C(/N=C(/NCc1ccccc1)Nc1ccc(I)cc1)c1ccccc1 [LQOF-G7, (Z)-N-benzoyl-N-benzyl-N-(4-iodophenyl)guanidine]	–	7.2 ± 0.6	–	23.6
